Assay results from patent publication US12558428B2, “Heterobifunctional compounds and their use in treating disease” (Halda Therapeutics OpCo, Inc., priority 2024, dated 2026).

tested on: T-Rex 293 cells lacking increased expression of estrogen receptor alpha protein; assay: Cellular growth inhibition assay, T-Rex 293 cells, (−) doxycycline; type: cell-based; settings: T-REx-293, 72 h, Table 7-A; T-Rex 293 cells without doxycycline (lacking increased ERα expression); 72 hours; CellTiter-Glo; read-out: (−) Dox GI50
In short: (§1)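 Viability read-out was CellTiter-Glo 2.0 luminescence after 72 h compound exposure, normalized to zero luminescence and fitted by four-parameter regression to give GI50. Cells were an ERα-inducible T-Rex 293 clone cultured with or without 3 ng/mL doxycycline in charcoal-stripped, phenol red-free medium.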

Compound | GI50
Cc1sc2c(c1C)C(c1ccc(N3CCC(CN4CCN(c5ccc(C6=C(c7ccccc7Cl)CCCc7cc(O)ccc76)cc5)CC4)CC3)cc1)=N[C@@H](C)c1nnc(C)n1-2 [IV-40] | > 2500 nM
Cc1sc2c(c1C)C(c1ccc(N3CC4(CC(CN5CCC(c6ccc(C7=C(c8ccccc8)CCCc8cc(C(=O)O)ccc87)cc6)CC5)C4)C3)cc1)=N[C@@H](C)c1nnc(C)n1-2 [IV-41] | 50 to 500 nM
Cc1sc2c(c1C)C(c1ccc(N3CC(CC4(O)CN(CC5CN(c6ccc(C7=C(c8ccccc8)CCCc8cc(C(=O)O)ccc87)cc6)C5)C4)C3)cc1)=N[C@@H](C)c1nnc(C)n1-2 [IV-42] | 50 to 500 nM
Cc1sc2c(c1C)C(c1ccc(N3CC(O)(CC4CN(CC5CN(c6ccc(C7=C(c8ccccc8)CCCc8cc(C(=O)O)ccc87)cc6)C5)C4)C3)cc1)=N[C@@H](C)c1nnc(C)n1-2 [IV-43] | 50 to 500 nM
Cc1sc2c(c1C)C(c1ccc(N3CC4(CCC(CN5CCC(c6ccc(C7=C(c8ccccc8)CCCc8cc(C(=O)O)ccc87)cc6)CC5)CC4)C3)cc1)=N[C@@H](C)c1nnc(C)n1-2 [IV-44] | 500 to 2500 nM
Cc1sc2c(c1C)C(c1ccc(N3CC(O)(CN4CCN(CC5CN(c6ccc(C7=C(c8ccccc8)CCCc8cc(C(=O)O)ccc87)cc6)C5)CC4)C3)cc1)=N[C@@H](C)c1nnc(C)n1-2 [IV-45] | < 50 nM
Cc1sc2c(c1C)C(c1ccc(C3CN(CC4(O)CCN(CC5CN(c6ccc(C7=C(c8ccccc8)CCCc8cc(C(=O)O)ccc87)cc6)C5)CC4)C3)cc1)=N[C@@H](C)c1nnc(C)n1-2 [IV-46] | 500 to 2500 nM
Cc1sc2c(c1C)C(c1ccc(N3CC4(CCC(CN5CCC(c6ccc(C7=C(c8ccccc8)CCCc8cc(O)ccc87)cc6)CC5)CC4)C3)cc1)=N[C@@H](C)c1nnc(C)n1-2 [IV-47] | 500 to 2500 nM
Cc1sc2c(c1C)C(c1ccc(N3CCC(CN4CCN(c5ccc(C6=C(c7ccccc7Cl)CCCc7cc(C(=O)O)ccc76)c(F)c5)CC4)CC3)cc1)=N[C@@H](C)c1nnc(C)n1-2 [IV-48] | 500 to 2500 nM
Cc1sc2c(c1C)C(c1ccc(N3CCC(CN4CCN(c5ccc(C6=C(c7ccccc7Cl)CCCc7cc(C(=O)O)ccc76)c(F)c5)CC4)CC3)cc1)=N[C@@H](Cc1ncco1)c1nnc(C)n1-2 [IV-49] | 500 to 2500 nM
Cc1sc2c(c1C)C(c1ccc(N3CC4(CC(CN5CCN(c6ccc(C7=C(c8ccccc8)CCCc8cc(O)ccc87)cc6)CC5)C4)C3)cc1)=N[C@@H](C)c1nnc(C)n1-2 [IV-50] | 500 to 2500 nM
Cc1sc2c(c1C)C(c1ccc(N3CCC(O)(CN4CCN(c5ccc(C6=C(c7cccc(Cl)c7)CCCc7cc(C(=O)O)ccc76)cc5)CC4)CC3)cc1)=N[C@@H](C)c1nnc(C)n1-2 [IV-51] | 500 to 2500 nM
Cc1sc2c(c1C)C(c1ccc(N3CCC(O)(CN4CCN(c5ccc(C6=C(c7ccc(Cl)c(Cl)c7)CCCc7cc(C(=O)O)ccc76)cc5)CC4)CC3)cc1)=N[C@@H](C)c1nnc(C)n1-2 [IV-52] | 500 to 2500 nM
Cc1sc2c(c1C)C(c1ccc(N3CCC(O)(CN4CCN(c5ccc(C6=C(c7cccc(Cl)c7Cl)CCCc7cc(C(=O)O)ccc76)cc5)CC4)CC3)cc1)=N[C@@H](C)c1nnc(C)n1-2 [IV-53] | 500 to 2500 nM
Cc1sc2c(c1C)C(c1ccc(N3CC(CN4CCN(CC5CN(c6ccc(C7=C(c8ccccc8Cl)CCCc8cc(C(=O)O)ccc87)cc6)C5)CC4)C3)cc1)=N[C@@H](C)c1nnc(C)n1-2 [IV-54] | 50 to 500 nM
COc1ccc(-c2sc3cc(OC)ccc3c2C(=O)c2ccc(OCCN3CCC4(CC3)CC(Oc3ccc(C5=N[C@@H](Cc6ncco6)c6nnc(C)n6-c6sc(C)c(C)c65)cc3)C4)cc2)cc1 [IV-55] | 500 to 2500 nM

tested on: MCF7 cells (ATCC #HTB-22); assay: Cellular growth inhibition assay, MCF7 cells purchased from ATCC; type: cell-based; settings: Homo sapiens, MCF7, 144 h, Table 8-A; MCF7 cells purchased from ATCC; six days; CellTiter-Glo; read-out: GI50
In short: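 MCF7 cells in RPMI 1640 with 10% FBS and 0.2 U/ml insulin, seeded at 1,500 cells/well (ATCC) or 225 cells/well (ECACC). Compounds added 24 h later, then 6 days at 37° C. Viability by CellTiter-Glo 2.0 luminescence. GI50 from four-parameter fit.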

Compound | GI50
Cc1sc2c(c1C)C(c1ccc(N3CCC(CN4CCN(c5ccc(C6=C(c7ccccc7Cl)CCCc7cc(O)ccc76)cc5)CC4)CC3)cc1)=N[C@@H](C)c1nnc(C)n1-2 [IV-40] | < 50 nM
Cc1sc2c(c1C)C(c1ccc(N3CC4(CC(CN5CCC(c6ccc(C7=C(c8ccccc8)CCCc8cc(C(=O)O)ccc87)cc6)CC5)C4)C3)cc1)=N[C@@H](C)c1nnc(C)n1-2 [IV-41] | < 50 nM
Cc1sc2c(c1C)C(c1ccc(N3CC(CC4(O)CN(CC5CN(c6ccc(C7=C(c8ccccc8)CCCc8cc(C(=O)O)ccc87)cc6)C5)C4)C3)cc1)=N[C@@H](C)c1nnc(C)n1-2 [IV-42] | < 50 nM
Cc1sc2c(c1C)C(c1ccc(N3CC(O)(CC4CN(CC5CN(c6ccc(C7=C(c8ccccc8)CCCc8cc(C(=O)O)ccc87)cc6)C5)C4)C3)cc1)=N[C@@H](C)c1nnc(C)n1-2 [IV-43] | < 50 nM
Cc1sc2c(c1C)C(c1ccc(N3CC4(CCC(CN5CCC(c6ccc(C7=C(c8ccccc8)CCCc8cc(C(=O)O)ccc87)cc6)CC5)CC4)C3)cc1)=N[C@@H](C)c1nnc(C)n1-2 [IV-44] | < 50 nM
Cc1sc2c(c1C)C(c1ccc(N3CC(O)(CN4CCN(CC5CN(c6ccc(C7=C(c8ccccc8)CCCc8cc(C(=O)O)ccc87)cc6)C5)CC4)C3)cc1)=N[C@@H](C)c1nnc(C)n1-2 [IV-45] | < 50 nM
Cc1sc2c(c1C)C(c1ccc(C3CN(CC4(O)CCN(CC5CN(c6ccc(C7=C(c8ccccc8)CCCc8cc(C(=O)O)ccc87)cc6)C5)CC4)C3)cc1)=N[C@@H](C)c1nnc(C)n1-2 [IV-46] | 50 to 500 nM
Cc1sc2c(c1C)C(c1ccc(N3CC4(CCC(CN5CCC(c6ccc(C7=C(c8ccccc8)CCCc8cc(O)ccc87)cc6)CC5)CC4)C3)cc1)=N[C@@H](C)c1nnc(C)n1-2 [IV-47] | < 50 nM
Cc1sc2c(c1C)C(c1ccc(N3CCC(CN4CCN(c5ccc(C6=C(c7ccccc7Cl)CCCc7cc(C(=O)O)ccc76)c(F)c5)CC4)CC3)cc1)=N[C@@H](C)c1nnc(C)n1-2 [IV-48] | < 50 nM
Cc1sc2c(c1C)C(c1ccc(N3CCC(CN4CCN(c5ccc(C6=C(c7ccccc7Cl)CCCc7cc(C(=O)O)ccc76)c(F)c5)CC4)CC3)cc1)=N[C@@H](Cc1ncco1)c1nnc(C)n1-2 [IV-49] | < 50 nM
Cc1sc2c(c1C)C(c1ccc(N3CC4(CC(CN5CCN(c6ccc(C7=C(c8ccccc8)CCCc8cc(O)ccc87)cc6)CC5)C4)C3)cc1)=N[C@@H](C)c1nnc(C)n1-2 [IV-50] | < 50 nM
Cc1sc2c(c1C)C(c1ccc(N3CCC(O)(CN4CCN(c5ccc(C6=C(c7cccc(Cl)c7)CCCc7cc(C(=O)O)ccc76)cc5)CC4)CC3)cc1)=N[C@@H](C)c1nnc(C)n1-2 [IV-51] | < 50 nM
Cc1sc2c(c1C)C(c1ccc(N3CCC(O)(CN4CCN(c5ccc(C6=C(c7ccc(Cl)c(Cl)c7)CCCc7cc(C(=O)O)ccc76)cc5)CC4)CC3)cc1)=N[C@@H](C)c1nnc(C)n1-2 [IV-52] | 50 to 500 nM
Cc1sc2c(c1C)C(c1ccc(N3CCC(O)(CN4CCN(c5ccc(C6=C(c7cccc(Cl)c7Cl)CCCc7cc(C(=O)O)ccc76)cc5)CC4)CC3)cc1)=N[C@@H](C)c1nnc(C)n1-2 [IV-53] | < 50 nM
Cc1sc2c(c1C)C(c1ccc(N3CC(CN4CCN(CC5CN(c6ccc(C7=C(c8ccccc8Cl)CCCc8cc(C(=O)O)ccc87)cc6)C5)CC4)C3)cc1)=N[C@@H](C)c1nnc(C)n1-2 [IV-54] | < 50 nM
COc1ccc(-c2sc3cc(OC)ccc3c2C(=O)c2ccc(OCCN3CCC4(CC3)CC(Oc3ccc(C5=N[C@@H](Cc6ncco6)c6nnc(C)n6-c6sc(C)c(C)c65)cc3)C4)cc2)cc1 [IV-55] | < 50 nM

tested on: T-Rex 293 cells having increased expression of estrogen receptor alpha protein; assay: Cellular growth inhibition assay, T-Rex 293 cells, (+) doxycycline; type: cell-based; settings: T-REx-293, 72 h, Table 7-A; T-Rex 293 cells with doxycycline (increased ERα expression); 72 hours; CellTiter-Glo; read-out: (+) Dox GI50
In short: as §1

Compound | GI50
Cc1sc2c(c1C)C(c1ccc(N3CCC(CN4CCN(c5ccc(C6=C(c7ccccc7Cl)CCCc7cc(O)ccc76)cc5)CC4)CC3)cc1)=N[C@@H](C)c1nnc(C)n1-2 [IV-40] | < 50 nM
Cc1sc2c(c1C)C(c1ccc(N3CC4(CC(CN5CCC(c6ccc(C7=C(c8ccccc8)CCCc8cc(C(=O)O)ccc87)cc6)CC5)C4)C3)cc1)=N[C@@H](C)c1nnc(C)n1-2 [IV-41] | < 50 nM
Cc1sc2c(c1C)C(c1ccc(N3CC(CC4(O)CN(CC5CN(c6ccc(C7=C(c8ccccc8)CCCc8cc(C(=O)O)ccc87)cc6)C5)C4)C3)cc1)=N[C@@H](C)c1nnc(C)n1-2 [IV-42] | < 50 nM
Cc1sc2c(c1C)C(c1ccc(N3CC(O)(CC4CN(CC5CN(c6ccc(C7=C(c8ccccc8)CCCc8cc(C(=O)O)ccc87)cc6)C5)C4)C3)cc1)=N[C@@H](C)c1nnc(C)n1-2 [IV-43] | < 50 nM
Cc1sc2c(c1C)C(c1ccc(N3CC4(CCC(CN5CCC(c6ccc(C7=C(c8ccccc8)CCCc8cc(C(=O)O)ccc87)cc6)CC5)CC4)C3)cc1)=N[C@@H](C)c1nnc(C)n1-2 [IV-44] | < 50 nM
Cc1sc2c(c1C)C(c1ccc(N3CC(O)(CN4CCN(CC5CN(c6ccc(C7=C(c8ccccc8)CCCc8cc(C(=O)O)ccc87)cc6)C5)CC4)C3)cc1)=N[C@@H](C)c1nnc(C)n1-2 [IV-45] | < 50 nM
Cc1sc2c(c1C)C(c1ccc(C3CN(CC4(O)CCN(CC5CN(c6ccc(C7=C(c8ccccc8)CCCc8cc(C(=O)O)ccc87)cc6)C5)CC4)C3)cc1)=N[C@@H](C)c1nnc(C)n1-2 [IV-46] | < 50 nM
Cc1sc2c(c1C)C(c1ccc(N3CC4(CCC(CN5CCC(c6ccc(C7=C(c8ccccc8)CCCc8cc(O)ccc87)cc6)CC5)CC4)C3)cc1)=N[C@@H](C)c1nnc(C)n1-2 [IV-47] | < 50 nM
Cc1sc2c(c1C)C(c1ccc(N3CCC(CN4CCN(c5ccc(C6=C(c7ccccc7Cl)CCCc7cc(C(=O)O)ccc76)c(F)c5)CC4)CC3)cc1)=N[C@@H](C)c1nnc(C)n1-2 [IV-48] | < 50 nM
Cc1sc2c(c1C)C(c1ccc(N3CCC(CN4CCN(c5ccc(C6=C(c7ccccc7Cl)CCCc7cc(C(=O)O)ccc76)c(F)c5)CC4)CC3)cc1)=N[C@@H](Cc1ncco1)c1nnc(C)n1-2 [IV-49] | < 50 nM
Cc1sc2c(c1C)C(c1ccc(N3CC4(CC(CN5CCN(c6ccc(C7=C(c8ccccc8)CCCc8cc(O)ccc87)cc6)CC5)C4)C3)cc1)=N[C@@H](C)c1nnc(C)n1-2 [IV-50] | < 50 nM
Cc1sc2c(c1C)C(c1ccc(N3CCC(O)(CN4CCN(c5ccc(C6=C(c7cccc(Cl)c7)CCCc7cc(C(=O)O)ccc76)cc5)CC4)CC3)cc1)=N[C@@H](C)c1nnc(C)n1-2 [IV-51] | < 50 nM
Cc1sc2c(c1C)C(c1ccc(N3CCC(O)(CN4CCN(c5ccc(C6=C(c7ccc(Cl)c(Cl)c7)CCCc7cc(C(=O)O)ccc76)cc5)CC4)CC3)cc1)=N[C@@H](C)c1nnc(C)n1-2 [IV-52] | 50 to 500 nM
Cc1sc2c(c1C)C(c1ccc(N3CCC(O)(CN4CCN(c5ccc(C6=C(c7cccc(Cl)c7Cl)CCCc7cc(C(=O)O)ccc76)cc5)CC4)CC3)cc1)=N[C@@H](C)c1nnc(C)n1-2 [IV-53] | < 50 nM
Cc1sc2c(c1C)C(c1ccc(N3CC(CN4CCN(CC5CN(c6ccc(C7=C(c8ccccc8Cl)CCCc8cc(C(=O)O)ccc87)cc6)C5)CC4)C3)cc1)=N[C@@H](C)c1nnc(C)n1-2 [IV-54] | < 50 nM
COc1ccc(-c2sc3cc(OC)ccc3c2C(=O)c2ccc(OCCN3CCC4(CC3)CC(Oc3ccc(C5=N[C@@H](Cc6ncco6)c6nnc(C)n6-c6sc(C)c(C)c65)cc3)C4)cc2)cc1 [IV-55] | < 50 nM
